In ChEMBL document CHEMBL3272225, “Potential carcinostatics. Synthesis and biological properties of d- and 1-beta,beta-difluoroaspartic acid and beta,beta-difluoroasparagine” (J Med Chem, 1977):
Calls of active or inactive are those of the source. No cut-off for these calls is given here.

How the values were obtained:
[1] = Growth inhibition of mouse 3T3-F cells assessed as cell growth at 100 ug/ml after 24 hrs by Coulter counting method; format: functional
[2] = Growth inhibition of mouse 3T3-F cells at 10 ug/ml assessed as cell growth after 24 hrs by Coulter counting method; format: functional
Mus musculus = species: Mus musculus; test: Growth inhibition of mouse 3T3-F cells assessed as cell growth after 24 hrs by Coulter counting method; format: functional
L5178Y = test: Antitumor activity against mouse L5178Y cells allografted in CDF-1 mouse assessed as cytostatic activity administered on day 1 to day 9 post challenge; format: functional
[3] = Competitive inhibition of aspartate aminotransferase in rat liver homogenate by Lineweaver-Burk plot method; format: tissue-based

With N[C@@H](C(=O)O)C(F)(F)C(=O)O the Cell growth at 100 µg/mL [1] was 12% and the Cell growth at 10 µg/mL [2] was 75%.
For N[C@H](C(=O)O)C(F)(F)C(=O)O, the Activity (Mus musculus) was “inactive”.
In the case of NC(C(=O)O)C(F)(F)C(=O)O (racemic), the Activity (L5178Y) is reported as “inactive” and the Ki [3] is reported as 1000 µM.
With NC(=O)C(F)(F)C(N)C(=O)O (racemic) the Activity (L5178Y) was “inactive”.
